Data published in ChEMBL document CHEMBL2029246, “Identification of benzoxazole analogs as novel, S1P(3) sparing S1P(1) agonists” (Bioorg Med Chem Lett, 2012).
pEC50: −log10 of the molar value. Calls of active or inactive are those of the source. No cut-off for these calls is given here.

Key:
[1] = target: Sphingosine 1-phosphate receptor 1 (Homo sapiens, UniProt P21453); assay: Agonist activity at SIP1 receptor by tango assay; assay type: functional
[2] = target: Sphingosine 1-phosphate receptor 3 (Homo sapiens, UniProt Q99500); assay: Agonist activity at human SIP3 receptor assessed as calcium mobilization by GeneBLAzer assay; assay type: functional
Homo sapiens = species on record: Homo sapiens; assay: Selectivity ratio of EC50 for SIP1 receptor to EC50 for human SIP3 receptor
Mus musculus [3] = species on record: Mus musculus; assay: Lymphopenic activity in C57BL/6 mouse assessed as reduction in blood lymphocytes after 4 to 8 weeks relative to control; assay type: functional, organism-based
Mus musculus [4] = species on record: Mus musculus; assay: Lymphopenic activity in C57BL/6 mouse assessed as reduction in blood lymphocytes relative to control; assay type: functional; design: scale not given: the % may be the effect or the level left
[5] = Oral bioavailability in mouse at 2 mg/kg; assay type: ADME, organism-based; conditions: in vivo
[6] = Volume of distribution in iv dosed mouse; assay type: ADME, organism-based; conditions: in vivo
[7] = Ratio of drug level in brain to blood in iv dosed mouse after 4 hrs; assay type: ADME, organism-based; conditions: read-out: BBR
Mus musculus [8] = assay: Lymphopenic activity in mouse assessed as reduction in blood lymphocytes at 1 mg/kg after 24 hrs relative to control; assay type: functional, organism-based; design: dose 1 mg/kg
[9] = Clearance in iv dosed mouse; assay type: ADME, organism-based; conditions: in vivo
[10] = Half life in mouse at 2 mg/kg, po; assay type: ADME, organism-based; design: dose 2 mg/kg, route oral; conditions: in vivo
[11] = Ratio of drug level in brain to blood in iv dosed mouse after 1 hr; assay type: ADME, organism-based; conditions: read-out: BBR
[12] = AUC (0 to 24 hrs) in mouse at 2 mg/kg, po; assay type: ADME, organism-based; design: time < 24 hr, dose 2 mg/kg, route oral; conditions: plasma
Mus musculus [13] = assay: Lymphopenia activity in mouse assessed as reduction in blood lymphocytes at 1 mg/kg after 4 hrs relative to control; assay type: functional; design: scale not given: the % may be the effect or the level left
[14] = Cmax in mouse at 2 mg/kg, po; assay type: ADME, organism-based; design: dose 2 mg/kg, route oral; conditions: in vivo

Chain of Sphingosine 1-phosphate receptor 3 (Q99500 whole entry): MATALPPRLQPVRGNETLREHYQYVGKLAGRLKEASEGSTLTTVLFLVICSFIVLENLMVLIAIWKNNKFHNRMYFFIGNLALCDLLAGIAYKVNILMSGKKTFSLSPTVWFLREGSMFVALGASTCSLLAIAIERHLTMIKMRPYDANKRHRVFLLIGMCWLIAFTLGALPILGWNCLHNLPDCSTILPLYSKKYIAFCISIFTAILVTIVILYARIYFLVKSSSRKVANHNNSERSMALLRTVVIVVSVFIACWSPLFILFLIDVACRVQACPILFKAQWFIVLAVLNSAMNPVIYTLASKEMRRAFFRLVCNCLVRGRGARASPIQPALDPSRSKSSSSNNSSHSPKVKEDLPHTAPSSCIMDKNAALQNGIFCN
Chain of Sphingosine 1-phosphate receptor 1 (P21453 whole entry): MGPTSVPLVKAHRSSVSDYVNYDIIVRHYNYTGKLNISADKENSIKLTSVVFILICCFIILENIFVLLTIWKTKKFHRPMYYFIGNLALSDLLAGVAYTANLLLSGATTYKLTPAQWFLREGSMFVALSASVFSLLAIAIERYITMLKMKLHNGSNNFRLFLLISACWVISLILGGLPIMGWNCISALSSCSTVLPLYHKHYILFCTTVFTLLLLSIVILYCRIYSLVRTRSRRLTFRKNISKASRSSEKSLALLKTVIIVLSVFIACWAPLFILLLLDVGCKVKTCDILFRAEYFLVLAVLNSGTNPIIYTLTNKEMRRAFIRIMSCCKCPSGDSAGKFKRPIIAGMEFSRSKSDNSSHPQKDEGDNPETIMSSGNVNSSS

Row | Structure (SMILES) | pEC50 [1] | pEC50 [2] | further results
1 | O=C(O)CCCCCc1cnc2sc(-c3ccc(-c4ccccc4)c(C(F)(F)F)c3)nc2c1 | 8.00 | < 5.00 | 
2 | O=C(O)CCN1CCC(c2ccc3oc(-c4ccc(-c5ccccc5)c(C(F)(F)F)c4)nc3c2)CC1 | 10.10 | 6.00 | 
3 | O=C(O)C1CN(CCc2ccc3oc(-c4ccc(-c5ccccc5)c(C(F)(F)F)c4)nc3c2)C1 | 9.40 | 6.10 | 
4 | O=C(O)CCCCCc1ccn2nc(-c3ccc(-c4ccccc4)c(C(F)(F)F)c3)nc2c1 | 6.90 | < 5.00 | 
5 | O=C(O)CN1CCN(c2ccc3oc(-c4ccc(-c5ccccc5)c(C(F)(F)F)c4)nc3c2)CC1 | 9.40 | 5.70 | 
6 | O=C(O)CNCCCc1ccc2oc(-c3ccc(-c4ccccc4)c(C(F)(F)F)c3)nc2c1 | 10.50 | 6.60 | Ratio EC50 (Homo sapiens): > 1000
7 | O=C(O)CCNCCc1ccc2oc(-c3ccc(-c4ccccc4)c(C(F)(F)F)c3)nc2c1 | 10.50 | 6.70 | 
8 | O=C(O)CN1CCC(c2ccc3oc(-c4ccc(-c5ccccc5)c(C(F)(F)F)c4)nc3c2)CC1 | 9.00 | 5.70 | 
9 | CCCCCCCCc1ccc(CCC(N)(CO)CO)cc1.Cl [FINGOLIMOD HYDROCHLORIDE] |  |  | Activity (Mus musculus [3]): inactive; Activity (Mus musculus [4]): 20%
10 | CC(C)Oc1ccc(-c2nc3cc(CC(=O)O)cnc3o2)cc1Cl | < 5.50 | < 5.00 | 
11 | O=C(O)CCCCCc1cnc2oc(-c3cc(-c4ccccc4)c(C(F)(F)F)s3)nc2c1 | 6.40 | < 5.00 | 
12 | CC(C)Oc1ccc(-c2nc3cc(CCCCCC(=O)O)cnc3o2)cc1C(F)(F)F | 7.70 | < 5.00 | 
13 | O=C(O)CCCCCc1cnc2oc(-c3ccc(-c4ccccc4)c(C(F)(F)F)c3)nc2c1 | 9.50 | < 5.00 | 
14 | CC(C)Oc1ncc(-c2nc3cc(CCCCCC(=O)O)cnc3o2)cc1Cl | 6.00 | < 5.00 | 
15 | O=C(O)CCCCCc1ccc2oc(-c3ccc(-c4ccccc4)c(C(F)(F)F)c3)nc2c1 | 9.40 | < 5.00 | 
16 | O=C(O)C1CCN(c2ccc3oc(-c4ccc(-c5ccccc5)c(C(F)(F)F)c4)nc3c2)CC1 | 9.20 | < 5.50 | bioavailability [5]: > 100%; Vd [6]: 1.48 L/kg; Kp at 4 h [7]: 3.73; Activity (Mus musculus [8]): inactive; clearance [9]: 3.68 mL/min/kg; half-life [10]: 5.4 h; Kp at 1 h [11]: 1.45; AUC(0-t) at 24 h [12]: 10300 ng·h/mL; Activity (Mus musculus [13]): 37%; Cmax [14]: 1070 ng/mL
17 | O=C(O)C1CN(CCCc2ccc3oc(-c4ccc(-c5ccccc5)c(C(F)(F)F)c4)nc3c2)C1 | 10.00 | 6.90 | 

Row | Structure (SMILES) | pEC50 [1] | pEC50 [2] | further results
18 | CC(C)Oc1ccc(-c2nc(-c3cccc4c3c(Cl)cn4CCC(=O)O)no2)cc1Cl | 10.60 | < 5.00 | 
19 | O=C(O)C1CCCN(CCCc2ccc3oc(-c4ccc(-c5ccccc5)c(C(F)(F)F)c4)nc3c2)C1 (centres undefined) | 9.30 | 5.70 | 
20 | CC(C)Oc1ccc(-c2nc3cc(C(=O)O)cnc3o2)cc1Cl | < 5.50 | < 5.00 | 
21 | CN(CCCc1ccc2oc(-c3ccc(-c4ccccc4)c(C(F)(F)F)c3)nc2c1)CC(=O)O | 9.50 | 6.00 | 
22 | CC(C)Oc1ncc(-c2nc3cc(CCCCCC(=O)O)cnc3o2)cc1C(F)(F)F | 8.20 | < 5.00 | 
23 | O=C(O)C1CCN(CCCc2ccc3oc(-c4ccc(-c5ccccc5)c(C(F)(F)F)c4)nc3c2)CC1 | 9.10 | 6.30 | 
24 | CC(C)Oc1ccc(-c2nc3cc(CCCCC(=O)O)cnc3o2)cc1Cl | 6.80 | < 5.00 | 
25 | CC(C)Oc1ccc(-c2nc3cc(CCCC(=O)O)cnc3o2)cc1Cl | 6.00 | < 5.00 | 
26 | O=C(O)CCCCCc1cn2cc(-c3ccc(-c4ccccc4)c(C(F)(F)F)c3)nc2s1 | 7.20 | < 5.00 | 
27 | O=C(O)CCCCCc1ccn2cc(-c3ccc(-c4ccccc4)c(C(F)(F)F)c3)nc2c1 | 6.40 | < 5.00 | 
28 | O=C(O)CCCCCc1ccc2[nH]c(-c3ccc(-c4ccccc4)c(C(F)(F)F)c3)cc2c1 | 6.90 | < 5.00 | 
29 | O=C(O)C1CN(c2ccc3oc(-c4ccc(-c5ccccc5)c(C(F)(F)F)c4)nc3c2)C1 | 8.00 | 5.70 | 
30 | CC(C)Oc1ccc(-c2nc3cc(CCCCCC(=O)O)cnc3o2)cc1Cl | 6.80 | < 5.00 | 
31 | O=C(O)CC1CCN(c2ccc3oc(-c4ccc(-c5ccccc5)c(C(F)(F)F)c4)nc3c2)CC1 | 8.90 | 5.90 | 
32 | CC(C)Oc1ccc(-c2nc(-c3cccc4c3ccn4CCC(=O)O)no2)cc1Cl | 11.00 |  | Ratio EC50 (Homo sapiens): 1e+06
33 | O=C(O)C1CCN(CCc2ccc3oc(-c4ccc(-c5ccccc5)c(C(F)(F)F)c4)nc3c2)CC1 | 9.80 | 6.30 | 
34 | CC(C)Oc1ccc(-c2nc3cc(CCC(=O)O)cnc3o2)cc1Cl | < 5.50 | < 5.00 | 
